Laboratory results published in paper PMC5745756, “N,N-disubstituted azines attenuate LPS-mediated neuroinflammation in microglia and neuronal apoptosis via inhibiting MAPK signaling pathways” (BMC Neuroscience, 2017).

Legend:
Assay type in all cases: cell-based, murine
[1] = system: TNF-α; test: ELISA of TNF-α in LPS-activated BV-2 culture medium; details: 10 and 20 µM, LPS 24 h
Experimental: (§1) To measure TNF-α, IL-6, and PGE2, BV-2 cells were seeded in a 24-well plate at a density of 3 × 10^5 cells/well. The cells were treated with LPS (100 ng/mL) in the presence or absence of compound 3 for 24 h, and the media was collected and centrifuged. IL-6, TNF-α, and PGE2 produced in microglial culture supernatants […] were measured by competitive enzyme immunoassay kits (R&D systems, Minneapolis, MN, USA) in accordance with the manufacturer’s protocol.
(§2) Fig. 2 Effect of compound 3 on LPS-induced iNOS and COX2 expression in BV-2 cells. BV-2 cells were pretreated with various concentrations (5, 10, and 20 µM) of compound 3 for 30 min and activated with 100 ng/mL LPS. After 6 h, the cells were collected for analysis of iNOS and COX-2 expression using western blot analysis (a–c). Similarly, LPS activation was made for 24 h as chronic BV2 activation and the iNOS and COX-2 expression was measured (d). α-Tubulin was used as the loading control. The densitometric analysis of bands was performed as described in the methods section. After 24 h, the culture medium was subsequently collected to measure the quantity of PGE2 (e), IL-6 (f), and TNF-α (g) using ELISA analysis. […]

[2] = system: N2a cells; test: TNF-α induced N2a cytotoxicity, direct treatment
Experimental: N2a cells were used as a representative neuronal cell line for the examination of apoptotic neuron viability using direct treatment of compound 3 with TNF-α activation as well as conditioned media (CM) from LPS-stimulated BV-2 cells treated with compound 3 [28]. This assay was performed following the methods described in our previous study, with slight modifications. To measure neuron viability, BV-2 cells were first seeded and treated with 100 ng/mL LPS in the presence or absence of compound 3. After 24 h, the CM was collected and transferred to N2a cells for a further 24 h. The cell viability of N2a cells was measured using the MTT assay. Well differentiated neuronal cells were used for the experimental purpose as shown in Additional file 1: Fig. S1.
Here, we have investigated whether the compound 3 has any direct protective effects on microglia and neurons against LPS and TNF-α induced direct toxicity. As the aim of this study is to check the effectiveness of compound 3 against neurodegenerative conditions, here we checked the effect of this compound to protect microglial cells against β-amyloid induced cytotoxicity as shown in Fig. 5a. […] LPS treatment was unable to induce cellular toxicity to N2a cells (Fig. 5b). […] Compound 3 mediated neuroprotection in N2a cells is due to the inhibition of proinflammatory cytokines produced by LPS activated microglia. […]

[3] = system: IL-6; test: ELISA of IL-6 in LPS-activated BV-2 culture medium; details: LPS 24 h
Experimental: as §1, §2

[4] = system: BV-2 cells; test: MTT cell viability of LPS-activated BV-2 cells; details: at 20 µM
Experimental: (§3) […] or MTT assay was performed as described by our previous publication with slight modification. In order to measure MTT and NO production, BV-2 cells were plated into a 96-well plate at a density of 4 × 10^4 cells/well. […] Then, nitrite (a soluble oxidation product of NO) was detected in the culture media by using the Griess reaction. The supernatant (50 µL) was collected and mixed with an equal volume of Griess reagent (1% sulfanilamide in phosphoric acid and 0.1% N-1-napthylethylenediamine dihydrochloride). The absorbance was measured at 570 nm by using a microplate reader. Sodium nitrite was used to create a standard curve from which the NO2 concentration was calculated. The cell viability was evaluated by spectrophotometrically measuring the reduction of yellow 3-[4,5-dimethylthiazol-2-yl]-2,5-diphenyltetrazolium bromide (MTT) to purple formazan crystals. MTT was dissolved in DMEM, added to the culture plate containing cells at a final concentration of 0.5 mg/mL, and incubated for 1 h. The medium containing the MTT solution was carefully removed, and 200 µL DMSO was added to each well. After solubilizing the stained cells to produce a formazan-colored solution, the optical density (OD) was measured on a microplate reader at 570 nm, and the results were expressed as a percentage of the LPS-treated group. The same plate was used for the NO and MTT assays. The cell supernatant was used for the NO assay, and the plated cells were used for the MTT assay.
(§4) The NO production and cell viability of LPS-activated BV-2 cells were measured after treatment with azine derivatives using Griess reagent and MTT assay, respectively.

[5] = MTT cell viability of LPS-activated BV-2 cells; details: mouse, LPS-activated BV-2 microglial cells; 20 µM compound; percentage of the LPS-only treatment group; mean ± standard deviation, three experiments
Experimental: as §3, §4

[6] = system: COX-2; test: Western blot of LPS-induced COX-2 expression in BV-2 cells
Experimental: BV-2 cells were seeded in a 6-well plate at a density of 6 × 10^5 cells/well and exposed to LPS (100 ng/mL) in the presence or absence of compound 3 for required time. After treatment, cells were collected and lysed in cell lysis buffer (50 mM Tris–HCl, pH 8.0, 0.1% SDS, 150 mM NaCl, 1% NP-40, 0.02% sodium azide, 0.5% sodium deoxycholate, 100 µg/mL PMSF, and […]) for 24 h at 4 °C. The protein content was measured using a Bradford assay. Equal amounts of protein (30 µg) were separated using SDS-PAGE and transferred to a nitrocellulose membrane. […]
Fig. 2 Effect of compound 3 on LPS-induced iNOS and COX2 expression in BV-2 cells. […] Similarly, LPS activation was made for 24 h as chronic BV2 activation and the iNOS and COX-2 expression was measured (d). α-Tubulin was used as the loading control. […] After 24 h, the culture medium was subsequently collected to measure the quantity of PGE2 (e), IL-6 (f), and TNF-α (g) using ELISA analysis. […]

COc1cc(/C=C/C=N/N=C/C=C/c2ccc(O)c(OC)c2)ccc1O [Compound 3, 4,4′-(1E,1′E,3E,3′E)-3,3′-(hydrazine-1,2-diylidene)bis(prop-1-ene-1-yl-3-ylidene)bis(2-methoxyphenol)]
TNF-α secretion [1]: significant reduction
Cell viability of N2a cells against TNF-α mediated toxicity [2]: increased cell viability
IL-6 secretion ([3]; 20 µM): noticeable activity
IL-6 secretion ([3]; 5 and 10 µM): did not significantly inhibit
Cytotoxicity to BV-2 cells [4]: without cytotoxicity
viability at 24 h, 20 µM [5]: 101 ± 2.53%
Expression of COX-2 ([6]; 5, 10 and 20 µM, 30 min pretreatment, LPS 100 ng/mL 6 h): significantly reduced
LPS induced COX-2 activation, chronic ([6]; 24 h chronic LPS activation): dramatically rescued
